Reference: paper PMC4427169, “Identification and structure solution of fragment hits against kinetoplastid N-myristoyltransferase” (Acta Crystallographica. Section F, Structural Biology …, 2015)
“And” between values parts separate entries of the source, which are not always exact repeats. Equal entries are not always repeated. Where two headings read alike, the source gives them in different places.

Tests used:
LmNMT [1] = biological target: T1, LmNMT (Leishmania major, UniProt Q4Q5S8); assay: Biolayer interferometry binding, LmNMT; conditions: for increase of affinity in the presence of myristoyl-CoA, LmNMT: with vs without myristoyl-CoA; for LE LmNMT, MYA (absence of cofactor) / LE LmNMT, +MYA: ligand efficiency calculated from K d; for LE LmNMT, MYA (absence of cofactor): absence of myristoyl-CoA; for LE LmNMT, +MYA: presence of myristoyl-CoA
T1 construct: LmNMT (5–421) was cloned into a pET-15b-derived vector; 6xHis followed by TEV cleavage site (N); made in house; host or cells: E. coli Rosetta (DE3)
T1 sequence (Q4Q5S8 entry or part of it): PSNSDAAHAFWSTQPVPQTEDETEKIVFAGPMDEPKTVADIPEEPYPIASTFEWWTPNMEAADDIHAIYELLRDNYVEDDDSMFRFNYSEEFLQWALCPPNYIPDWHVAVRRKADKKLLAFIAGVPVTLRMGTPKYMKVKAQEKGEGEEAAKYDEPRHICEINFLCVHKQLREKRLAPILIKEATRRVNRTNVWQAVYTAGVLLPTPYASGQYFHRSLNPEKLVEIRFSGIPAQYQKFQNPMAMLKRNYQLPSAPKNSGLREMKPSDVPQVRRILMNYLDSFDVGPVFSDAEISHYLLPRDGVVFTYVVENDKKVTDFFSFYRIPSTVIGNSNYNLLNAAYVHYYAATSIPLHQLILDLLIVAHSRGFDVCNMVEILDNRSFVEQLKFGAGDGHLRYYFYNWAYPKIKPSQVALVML
Description: (§1) TbNMT and LmNMT were biotinylated by incubation with NHS-PEG4-biotin (Thermo) in a 1:1 molar ratio for 30 min at room temperature before free biotinylation reagent was removed by passage through a 2 ml Zeba desalt spin column (Thermo). Biolayer interferometry (BLI) measurements were carried out using an Octet RED 384 instrument (ForteBio). TbNMT and LmNMT were immobilized upon superstreptavidin (SSA) biosensors by incubation for 900 s at 25 and 50 µg ml^−1, respectively, before free streptavidin sites were blocked by a 60 s dip into 10 µg ml^−1 biocytin (Tocris). A control set of SSA biosensors were prepared in parallel by blocking the surface with biocytin. A seven-point concentration series was prepared for each fragment molecule in threefold dilution steps from a top concentration of 1 mM. For each set of biosensors, a 60 s baseline in buffer alone was acquired followed by a 60 s association step and a 180 s dissociation step. […] Data were processed and analysed and K d values were determined using the global fitting procedures as implemented in ForteBio Data Analysis Software v.7.0.1.5. The ligand efficiency metric was calculated using LE = −RTlnK d/heavy-atom count (Hopkins et al., 2004[▶]).

TbNMT [2] = biological target: T2, TbNMT (Trypanosoma brucei brucei, UniProt Q388H8); assay: Radiometric SPA-based enzyme-inhibition assay, TbNMT; assay type: biochemical; set-up: The gene encoding TbNMT was cloned into a pET-15-derived expression vector; 6xHis followed by TEV cleavage site (N); made in house; host or cells: Escherichia coli Rosetta (DE3); conditions: single fragment concentration of 0.5 mM
T2 sequence (Q388H8 1-446): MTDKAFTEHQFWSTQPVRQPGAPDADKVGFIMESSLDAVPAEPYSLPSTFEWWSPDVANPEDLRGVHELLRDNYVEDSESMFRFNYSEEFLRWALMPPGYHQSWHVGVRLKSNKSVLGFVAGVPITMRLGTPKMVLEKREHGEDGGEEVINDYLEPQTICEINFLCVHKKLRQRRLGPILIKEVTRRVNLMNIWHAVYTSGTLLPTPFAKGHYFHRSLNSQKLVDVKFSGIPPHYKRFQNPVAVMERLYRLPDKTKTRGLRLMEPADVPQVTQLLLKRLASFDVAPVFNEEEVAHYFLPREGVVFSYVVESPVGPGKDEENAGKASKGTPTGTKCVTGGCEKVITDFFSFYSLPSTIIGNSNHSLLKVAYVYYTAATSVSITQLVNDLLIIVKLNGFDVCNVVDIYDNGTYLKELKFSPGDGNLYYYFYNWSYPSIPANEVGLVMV
Description: (§2) Activity assays for TbNMT and LmNMT were carried out using a radiometric SPA-based assay as described previously (Frearson et al., 2010[▶]; Brand et al., 2014[▶]). Percentage inhibition (PI) was determined using a fragment concentration of 0.5 mM in the assay.

TbNMT [3] = biological target: T2, TbNMT; assay: Fragment screen by ligand-observed NMR spectroscopy (STD, water-LOGSY, CPMG) with DDD85646 competition; conditions: fragments at 500 µM, binding and competition with 50 µM DDD85646 in STD
Description: TbNMT was prepared at 10 µM in 25 mM sodium phosphate pH 7.4 and 10% deuterated water and the cofactor myristoyl-CoA was added to a final concentration of 50 µM.

LmNMT [4] = biological target: T1, LmNMT; assay: Radiometric SPA-based enzyme-inhibition assay, LmNMT; assay type: biochemical; conditions: single fragment concentration of 0.5 mM
Description: as §2

TbNMT [5] = biological target: T2, TbNMT; assay: Biolayer interferometry binding, TbNMT; set-up: The gene encoding TbNMT was cloned into a pET-15-derived expression vector; 6xHis followed by TEV cleavage site (N); made in house; host or cells: Escherichia coli Rosetta (DE3); conditions: for increase of affinity in the presence of myristoyl-CoA, TbNMT: with vs without myristoyl-CoA; for LE TbNMT, MYA (absence of cofactor) / LE TbNMT, +MYA: ligand efficiency calculated from K d; for LE TbNMT, MYA (absence of cofactor): absence of myristoyl-CoA; for LE TbNMT, +MYA: presence of myristoyl-CoA
Description: as §1

[6] = set-up: method as in Frearson et al., 2010; conditions: ref Frearson et al., 2010; cited from earlier work
[7] = BLI, absence of the cofactor myristoyl-CoA (MYA), read-out: K d LmNMT, MYA (absence of cofactor)
[8] = BLI, presence of 1 µM myristoyl-CoA (MYA), read-out: K d LmNMT, +MYA
[9] = BLI, absence of the cofactor myristoyl-CoA (MYA), read-out: K d TbNMT, MYA (absence of cofactor)
[10] = BLI, presence of 1 µM myristoyl-CoA (MYA), read-out: K d TbNMT, +MYA

Structure (SMILES) | Kd (LmNMT [1]; [7]) [µM] | Kd (LmNMT [1]; [8]) [µM] | increase of affinity in the presence of myristoyl-CoA, LmNMT (LmNMT [1]; BLI) | LE LmNMT, MYA (absence of cofactor) (LmNMT [1]) | LE LmNMT, +MYA (LmNMT [1]) | PI (%) TbNMT (TbNMT [2]) [%] | NMR hit class (TbNMT [3]) | PI (%) LmNMT (LmNMT [4]) [%] | Kd (TbNMT [5]; [9]) [µM] | Kd (TbNMT [5]; [10]) [µM] | increase of affinity in the presence of myristoyl-CoA, TbNMT (TbNMT [5]; BLI) | LE TbNMT, MYA (absence of cofactor) (TbNMT [5]) | LE TbNMT, +MYA (TbNMT [5]) | CNS exposure [6] | Kd (LmNMT [1]) [µM] | Kd (TbNMT [5]) [µM]
CNCc1cc(-c2ccccc2)nn1C [Fragment 3] | 700 | 180 | around fivefold | 0.28 | 0.34 | 70 | class II | 52 | 530 | 200 | around fivefold | < 0.3 and 0.30 | > 0.3 and 0.33 | – | – | –
CNCc1cccc(CN2CCOCC2)c1 [Fragment 2] | 980 | 200 | around fivefold | 0.25 | 0.31 | 36 | class I | 55 | 760 | 90 | around fivefold | < 0.3 and 0.26 | > 0.3 and 0.34 | – | – | –
Cc1nn(C)c(C)c1NS(=O)(=O)c1c(Cl)cc(-c2ccnc(N3CCNCC3)c2)cc1Cl [DDD85646] | – | – | – | – | – | – | – | – | – | – | – | – | – | lack of CNS exposure | – | –
Nc1ccccc1N1CCNCC1 [Fragment 4] | – | – | – | 0.42 | – | – | class II | 53 | – | – | – | 0.45 | – | – | 98 | 48
